Experiments:
human fetal chondrocytes = assay: Chondrocyte terminal differentiation (COLX expression, alkaline phosphatase) in human fetal chondrocytes; type: cell-based
Description: From a therapeutic and regulatory standpoint, small molecules represent a highly attractive modality for manipulating cell biology. To this end, we conducted a high throughput screen to discover small molecules that regulate chondrocyte differentiation. As a readout for the screen, we chose mice carrying a transgenic mCherry reporter (Maye et al., 2011) for expression of Col10a1 (COL10). COL10 expression, along with alkaline phosphatase (AP) levels, increases during later stages of chondrocyte differentiation, concomitant with withdrawal from the cell cycle. […] To conduct the screen, total limb cells were isolated from Col10a1-mCherry transgenic embryos and cultured in the presence of BMP-4, a driver of chondrocyte hypertrophy (Wu et al., 2013); 170,000 compounds were assayed for their ability to decrease the mCherry signal in live cells under these conditions (FIG. 27A). Out of this first dataset, 469 molecules were selected for confirmatory screening. This number was further reduced to 75 verified compounds that blocked increases in mCherry signal (FIG. 27B). Additional vetting led to the selection of Regulator of Cartilage Growth and Differentiation (RCGD) 423 as the primary compound for continued characterization. The ability of RCGD 423 to inhibit COL10 expression in human cells was confirmed, and AP activity was employed as a supplemental readout of chondrocyte differentiation.
Cells were fixed with 3.7% formaldehyde and stained for alkaline phosphatase activity with SigmaFast 5-bromo-4-chloro-3-indolyl phosphate/4-nitro blue tetrazolium (BCIP/NBT) (Sigma Aldrich, St. Louis, Mo.) according to the manufacturer's protocol.

chondrocyte cultures = assay: Toxicity in chondrocyte cultures; type: cell-based
Experimental: In a clinical setting, treatment with exogenous growth factors would present a difficult and expensive strategy. To address this, our group designed a high throughput screen to identify small molecule modulators of chondrogenic differentiation based on the prevention of the hypertrophy-associated marker collagen X (COLX). […] Importantly, the stimulatory effect of CRMs on p-STAT3 and c-MYC was reversible; protein levels of both p-STAT-3 and c-MYC decreased 48 hours after CRM-398 or -423 withdrawal (data not shown). Identification of such compounds can not only allow us to control differentiation of chondrocytes, but also manipulate the expression of STAT3 and c-MYC to achieve rejuvenation of adult chondrocytes. CRM-398 and -423 can be tested in parallel with LIF and their effects on adult articular chondrocyte activation can be assessed as described herein.

[1] = system: human adult articular chondrocytes; assay: Cellular metabolism (Seahorse ECAR and OCR), human adult articular chondrocytes; type: cell-based
Experimental: The mitochondrial assay cellular oxygen consumption and mitochondrial function was carried out to measure basal respiration using XF24 instrument (Seahorse Biosciences) according to manufacturer instructions. Tested cells (100,000 cells per well) we plated into 24-well test plates 48 hours prior to experimentation. Oxygen consumption rates and extracellular acidification rates were measured every 10 minutes for up to 60 minutes (Rate 1-6).

BMPR1B+ chondrocytes = assay: Retention of BMPR1B+ chondrocytes in culture (flow cytometry); type: cell-based, pig
Experimental: FIG. 35. RCGD 423 Preserves BMPR1B+ Chondrocytes in Culture. Adult pig chondrocytes were cultured in the presence of various cytokines or RCGD 423 and the number of cells expressing BMPR1B were quantitated using flow cytometry. Know mitogens for cartilage, including PDGF-BB and FGF2, promoted dramatic loss of BMPR1B^+ cells. In contrast, RCGD 423 and LIF acted to maintain cells with the BMPR1B+ phenotype.
BMPR1B+LIFR+ human adult articular chondrocytes were sorted using FACS and deposited in 96-well culture plates at density 10,000 cells per well in DMEM/F12 culture medium (Invitrogen) supplemented with 1% FBS. Growth factors or RCGD 423 were added at the time of plating. After 1, 3 and 7 days cultures were re-analyzed with FACS using an antibody against BMPR1B.

pSTAT3 and MYC [2] = assay: Duration of pSTAT3/MYC induction after wash out or release from PLGA microspheres; type: cell-based, pig; conditions: drug applied 24 hours, then washed out
Experimental: (§1) FIGS. 31A-31D. […] (FIG. 31A) Experiments were conducted to test the tissue reparative function of compounds disclosed herein. FIG. 31A depicts histograms of amounts of glycosaminoglycans (GAGs) and collagen 2 observed under control conditions and after administration of RCGD 423. (FIG. 31B) The duration of the effects elicited by RCGD 423 was determined by applying the drug for 24 hours and then washing it out. Protein levels of pSTAT3 and MYC were determined at the indicated time points after wash out; histone H3 was used as a loading control. (FIG. 31C) Protein levels of MYC and pSTAT3 in adult pig articular chondrocytes were used to determine the time frame in which release of RCGD 423 from PLGA microspheres reaches efficacious levels. Supernatant from drug-loaded PLGA microspheres was harvested at the indicated intervals and applied to pig chondrocytes. Histone H3 was used as a loading control. (FIG. 31D) Repair in a tissue context was assessed by removing small explants from a biopsy punch of adult pig articular cartilage. Matrigel with or without RCGD 423-loaded microspheres was applied to the defects. Safranin O staining was performed on sections of explants following 5 weeks of culture; border of defect and intact tissue is shown.
(§2) We also tested whether RCGD 423 could initiate healing of small defects generated on the surface of intact articular cartilage. […]

[3] = system: pig articular cartilage biopsy punches with defects; assay: Repair of defects in adult pig articular cartilage biopsy punches in vitro; type: cell-based; conditions: Matrigel with microspheres, 5 weeks of culture
Experimental: as §1, §2

[4] = system: human adult articular chondrocytes; assay: RNA-Seq of human adult articular chondrocytes; type: cell-based; conditions: n=7
adult chondrocytes = assay: Collagen 2 production by adult chondrocytes; type: cell-based; conditions: compared with control (DMSO)
Description: FIGS. 21A-21B. […] (FIG. 21A) cell sorting results for isotype (left), BMPR18^neg (middle), and BMPR18+ cells (right). (FIG. 21B) CRM-423 (right panel) stimulates collagen 2 product by adult chondrocytes compared with control (DMSO, left panel).
Cmpd 423 stimulates collagen 2 product by adult chondrocytes (FIG. 21B).

pSTAT3 and MYC [5] = assay: pSTAT3 and MYC in other cells/tissues; type: cell-based; conditions: embryonic stem cells and the heart; unpublished preliminary data
Description: Based on the functional properties elicited by RCGD 423, we propose that it (or compounds functionally similar to it) may represent core components of treatment regimens for articular cartilage injury.

How did the “COL10 expression in human cells” value (human fetal chondrocytes) turn out when `Brc1ccc(Nc2nc(-c3ccccc3)cs2)cc1` [RCGD 423, N-(4-Bromophenyl)-4-phenyl-1,3-thiazol-2-amine] was run?
Its value is “inhibit”.

And the “alkaline phosphatase (AP) levels” value (human fetal chondrocytes; fetal cartilage treated with BMP-4)?
Its value is “significantly reduced”.

And the “terminal differentiation (COLX expression)” value (human fetal chondrocytes; human fetal chondrocytes, 1 μM)?
The value was “significant inhibition”.

And the “toxicity in chondrocyte cultures” value (chondrocyte cultures)?
The value was “no toxicity”.

And the cellular respiration [1]?
The cellular respiration was “increased”.

What about the levels of glycolysis [1] of the same compound?
The levels of glycolysis was “unchanged”.

And the “BMPR1B+ chondrocytes in culture” value (BMPR1B+ chondrocytes)?
The value was “helped maintain”.

What about the “time after drug removal at which increases in pSTAT3 and MYC are observed” value (pSTAT3 and MYC [2]) of the same compound?
The value was “up to 7 days”.

What about the “repair / remodeling of cartilage defects” value [3] of the same compound?
Its value is “promotes cartilage repair”.

What about the “enriched transcripts (increased more than 1.5-fold in 4/7 replicates)” value [4] of the same compound?
Its value is 1,244.

And the “collagen 2 production by adult chondrocytes” value (adult chondrocytes)?
The value was “stimulates”.

And the “pSTAT3 and MYC proteins in other cells/tissues” value (pSTAT3 and MYC [5])?
Its value is “promotes increases”.

From patent publication US11072592B2, “Small molecules that enable cartilage rejuvenation” (The Regents of the University of California, priority 2015, dated 2021)
